# From patent US20040006236A1, “Diaminopropionic acid derivatives” (priority 1999, published 2004)
# Columns and labels:
# [1] = test system: cell-surface Mac-1 adhesion to immobilized fibrinogen (HL-60 cells); test: Mac-1/Fibrinogen cell-based screening assay; set-up: species or system human; settings: Homo sapiens, HL-60, HL-60 cells; read-out: Mac-1/Fgn Cell based Assay IC50
# Outline: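 Wells coated with fibrinogen and blocked with PVP. Labeled HL-60 cells (2×10^6 cells/mL in RPMI/0.05% BSA/0.2 mM MnCl2) preincubated with DMSO-diluted compounds for 10 min at 37° C, then left to adhere 30 min at 37° C/5% CO2. Unbound cells washed off with TBS.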
# [2] = target: T1, ICAM-1 binding to immobilized Mac-1 (Homo sapiens, UniProt P05107+P11215); test: Mac-1/ICAM-1 screening assay (solid-phase ELISA); settings: read-out: Mac-1/ICAM-1 Protein-Protein Assay IC50
# T1 construct: made in house; host or cells: transfected 293 cells (Mac-1)
# T1 sequence (P05107 23-769, other chains not shown): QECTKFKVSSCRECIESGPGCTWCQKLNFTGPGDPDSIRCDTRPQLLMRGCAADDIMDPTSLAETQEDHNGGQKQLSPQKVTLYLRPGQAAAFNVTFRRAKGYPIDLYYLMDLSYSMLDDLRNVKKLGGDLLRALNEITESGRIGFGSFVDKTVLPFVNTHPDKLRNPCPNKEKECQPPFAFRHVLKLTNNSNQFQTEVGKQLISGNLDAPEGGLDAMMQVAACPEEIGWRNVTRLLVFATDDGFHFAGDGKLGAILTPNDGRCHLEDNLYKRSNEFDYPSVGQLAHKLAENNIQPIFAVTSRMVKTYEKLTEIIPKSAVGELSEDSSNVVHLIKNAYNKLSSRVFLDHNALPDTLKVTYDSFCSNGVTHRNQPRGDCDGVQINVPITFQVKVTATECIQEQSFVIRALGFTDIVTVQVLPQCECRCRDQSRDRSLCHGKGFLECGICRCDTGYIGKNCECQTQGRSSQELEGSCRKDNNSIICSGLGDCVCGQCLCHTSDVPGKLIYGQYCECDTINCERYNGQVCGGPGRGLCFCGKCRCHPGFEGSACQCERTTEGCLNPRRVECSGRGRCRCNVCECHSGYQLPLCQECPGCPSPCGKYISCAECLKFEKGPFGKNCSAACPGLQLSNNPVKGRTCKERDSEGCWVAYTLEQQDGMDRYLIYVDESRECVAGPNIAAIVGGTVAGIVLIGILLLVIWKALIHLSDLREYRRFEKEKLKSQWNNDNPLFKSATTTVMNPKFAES
# Outline: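 Competitive solid-phase ELISA: membrane Mac-1 from transfected 293 cells coated at 3 μg/mL in 20 mM Hepes pH 7.2/0.14 M NaCl/1 mM MnCl2; compounds (0.12 nM-20 μM, 1:4 series) plus 5dICAM-Ig (40 μg/mL, added) 2 h at 37° C. Bound ICAM-Ig detected with HRP anti-human IgG Fc, TMB, A450; IC50 reported.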
IC50 [1],IC50 [2],SMILES
43 nM,6.8 nM,"COc1cccc(C(=O)NC[C@H](NC(=O)c2ccc(C(=O)NCc3cccc(O)c3)cc2Cl)C(=O)O)c1 [Example 76, N-[2-chloro-4-[[[(3-hydroxyphenyl)methyl]amino]-carbonyl]benzoyl]-3-(3-methoxybenzoylamino)-L-alanine]"
79 nM,29 nM,O=C(NCc1cccc(O)c1)c1ccc(C(=O)N[C@@H](CNC(=O)C2CCCC2)C(=O)O)c(Cl)c1 [Example 101]
123 nM,21 nM,O=C(NCc1cccc(O)c1)c1ccc(C(=O)N[C@@H](CNC(=O)C2(c3ccccc3)CCCC2)C(=O)O)c(Cl)c1 [Example 103]
82 nM,25 nM,O=C(NCc1cccc(O)c1)c1ccc(C(=O)N[C@@H](CNC(=O)C2CCCCC2)C(=O)O)c(Cl)c1 [Example 104]
151 nM,22 nM,CC1(C(=O)NC[C@H](NC(=O)c2ccc(C(=O)NCc3cccc(O)c3)cc2Cl)C(=O)O)CCCCC1 [Example 105]
161 nM,18 nM,O=C(CCN1CCCCC1)NC[C@H](NC(=O)c1ccc(C(=O)NCc2cccc(O)c2)cc1Cl)C(=O)O [Example 112]
86 nM,18 nM,O=C(/C=C/c1cccs1)NC[C@H](NC(=O)c1ccc(C(=O)NCc2cccc(O)c2)cc1Cl)C(=O)O [Example 116]
131 nM,33 nM,CC(=O)Oc1ccccc1C(=O)NC[C@H](NC(=O)c1ccc(C(=O)NCc2cccc(O)c2)cc1Cl)C(=O)O [Example 117]
16 nM,23 nM,Nc1cccc(C(=O)NC[C@H](NC(=O)c2ccc(C(=O)NCc3cccc(O)c3)cc2Cl)C(=O)O)c1 [Example 118]
468 nM,26 nM,NS(=O)(=O)c1ccc(C(=O)NC[C@H](NC(=O)c2ccc(C(=O)NCc3cccc(O)c3)cc2Cl)C(=O)O)cc1 [Example 119]
80 nM,9 nM,O=C(NCc1cccc(O)c1)c1ccc(C(=O)N[C@@H](CNC(=O)c2cccc(Br)c2)C(=O)O)c(Cl)c1 [Example 121]
20 nM,6.9 nM,O=C(NCc1cccc(O)c1)c1ccc(C(=O)N[C@@H](CNC(=O)c2cccc(Cl)c2)C(=O)O)c(Cl)c1 [Example 123]
27 nM,11 nM,N#Cc1cccc(C(=O)NC[C@H](NC(=O)c2ccc(C(=O)NCc3cccc(O)c3)cc2Cl)C(=O)O)c1 [Example 126]
71 nM,23 nM,CN(C)c1cccc(C(=O)NC[C@H](NC(=O)c2ccc(C(=O)NCc3cccc(O)c3)cc2Cl)C(=O)O)c1 [Example 127]
12 nM,9.7 nM,O=C(NCc1cccc(O)c1)c1ccc(C(=O)N[C@@H](CNC(=O)c2cccc(F)c2)C(=O)O)c(Cl)c1 [Example 131]
3.3 nM,7 nM,O=C(NCc1cccc(O)c1)c1ccc(C(=O)N[C@@H](CNC(=O)c2cccc(O)c2)C(=O)O)c(Cl)c1 [Example 132]
32 nM,10 nM,O=C(NCc1cccc(O)c1)c1ccc(C(=O)N[C@@H](CNC(=O)c2cccc(I)c2)C(=O)O)c(Cl)c1 [Example 133]
218 nM,26 nM,COc1ccccc1C(=O)NC[C@H](NC(=O)c1ccc(C(=O)NCc2cccc(O)c2)cc1Cl)C(=O)O [Example 134]
121 nM,16 nM,COC(=O)c1cccc(C(=O)NC[C@H](NC(=O)c2ccc(C(=O)NCc3cccc(O)c3)cc2Cl)C(=O)O)c1 [Example 136]

IC50 [1],IC50 [2],SMILES
84 nM,22 nM,Cc1ccccc1C(=O)NC[C@H](NC(=O)c1ccc(C(=O)NCc2cccc(O)c2)cc1Cl)C(=O)O [Example 137]
17 nM,10 nM,Cc1cccc(C(=O)NC[C@H](NC(=O)c2ccc(C(=O)NCc3cccc(O)c3)cc2Cl)C(=O)O)c1 [Example 138]
98 nM,47 nM,O=C(NCc1cccc(O)c1)c1ccc(C(=O)N[C@@H](CNC(=O)c2ccccc2[N+](=O)[O-])C(=O)O)c(Cl)c1 [Example 140]
47 nM,9.6 nM,O=C(NCc1cccc(O)c1)c1ccc(C(=O)N[C@@H](CNC(=O)c2cccc([N+](=O)[O-])c2)C(=O)O)c(Cl)c1 [Example 141]
275 nM,13 nM,O=C(NCc1cccc(O)c1)c1ccc(C(=O)N[C@@H](CNC(=O)c2ccc([N+](=O)[O-])cc2)C(=O)O)c(Cl)c1 [Example 142]
131 nM,24 nM,O=C(NCc1cccc(O)c1)c1ccc(C(=O)N[C@@H](CNC(=O)c2cc(F)c(F)cc2F)C(=O)O)c(Cl)c1 [Example 145]
153 nM,27 nM,O=C(NCc1cccc(O)c1)c1ccc(C(=O)N[C@@H](CNC(=O)c2cccc(C(F)(F)F)c2)C(=O)O)c(Cl)c1 [Example 146]
76 nM,18 nM,O=C(NCc1cccc(O)c1)c1ccc(C(=O)N[C@@H](CNC(=O)c2ccco2)C(=O)O)c(Cl)c1 [Example 148]
65 nM,21 nM,O=C(NCc1cccc(O)c1)c1ccc(C(=O)N[C@@H](CNC(=O)c2ccc(Br)o2)C(=O)O)c(Cl)c1 [Example 150]
46 nM,33 nM,O=C(NCc1cccc(O)c1)c1ccc(C(=O)N[C@@H](CNC(=O)c2ccc[nH]2)C(=O)O)c(Cl)c1 [Example 151]
804 nM,203 nM,Cc1noc(C)c1C(=O)NC[C@H](NC(=O)c1ccc(C(=O)NCc2cccc(O)c2)cc1Cl)C(=O)O [Example 153]
58 nM,11 nM,O=C(NCc1cccc(O)c1)c1ccc(C(=O)N[C@@H](CNC(=O)c2sccc2Br)C(=O)O)c(Cl)c1 [Example 154]
51 nM,13 nM,O=C(NCc1cccc(O)c1)c1ccc(C(=O)N[C@@H](CNC(=O)c2ccc(Br)s2)C(=O)O)c(Cl)c1 [Example 155]
64 nM,12 nM,O=C(NCc1cccc(O)c1)c1ccc(C(=O)N[C@@H](CNC(=O)c2sccc2Cl)C(=O)O)c(Cl)c1 [Example 156]
34 nM,7.7 nM,O=C(NCc1cccc(O)c1)c1ccc(C(=O)N[C@@H](CNC(=O)c2ccc(Cl)s2)C(=O)O)c(Cl)c1 [Example 157]
70 nM,20 nM,O=C(NCc1cccc(O)c1)c1ccc(C(=O)N[C@@H](CNC(=O)c2cc(Br)c(Br)s2)C(=O)O)c(Cl)c1 [Example 158]
36 nM,13 nM,Cc1ccsc1C(=O)NC[C@H](NC(=O)c1ccc(C(=O)NCc2cccc(O)c2)cc1Cl)C(=O)O [Example 159]
11 nM,6.6 nM,Cc1ccc(C(=O)NC[C@H](NC(=O)c2ccc(C(=O)NCc3cccc(O)c3)cc2Cl)C(=O)O)s1 [Example 160]
17 nM,12 nM,O=C(NCc1cccc(O)c1)c1ccc(C(=O)N[C@@H](CNC(=O)c2ccsc2)C(=O)O)c(Cl)c1 [Example 161]
